The supplement of paper PMC13380429
± gives the standard deviation of the averaged measurements.

Tests used:
Settings in all cases: 72 h
Vero E6 [1] = test: relative viability EC50 (midpoint between 100% and the lowest measured viability); higher = less toxic
U2OS [2] = test: as above
HepG2 [3] = test: as above
Vero E6 [4] = test: cell viability relative to DMSO; higher = less toxic
Caco-2 [5] = test: as above
U2OS [6] = test: as above
Calu-3 [7] = test: as above
HepG2 [8] = test: as above
Vero E6 [9] = test: drug sensitivity score (DSS) for viability; higher = more toxic; extreme values may be limits of the assay
Caco-2 [10] = test: as above
U2OS [11] = test: as above
Calu-3 [12] = test: as above
HepG2 [13] = test: as above
Caco-2 [14] = test: relative viability EC50 (midpoint between 100% and the lowest measured viability); higher = less toxic
Calu-3 [15] = test: as above

Row | Compound | relative viability EC50 (Vero E6 [1]) [µM] | relative viability EC50 (U2OS [2]) [µM] | relative viability EC50 (HepG2 [3]) [µM] | cell viability (Vero E6 [4]; 1 nM) [%] | cell viability (Vero E6 [4]; 10 nM) [%] | cell viability (Vero E6 [4]; 100 nM) [%] | cell viability (Vero E6 [4]; 1000 nM) [%] | cell viability (Vero E6 [4]; 10000 nM) [%] | cell viability (Caco-2 [5]; 1 nM) [%] | cell viability (Caco-2 [5]; 10 nM) [%] | cell viability (Caco-2 [5]; 100 nM) [%] | cell viability (Caco-2 [5]; 1000 nM) [%] | cell viability (Caco-2 [5]; 10000 nM) [%] | cell viability (U2OS [6]; 1 nM) [%] | cell viability (U2OS [6]; 10 nM) [%] | cell viability (U2OS [6]; 100 nM) [%] | cell viability (U2OS [6]; 1000 nM) [%] | cell viability (U2OS [6]; 10000 nM) [%] | cell viability (Calu-3 [7]; 1 nM) [%] | cell viability (Calu-3 [7]; 10 nM) [%] | cell viability (Calu-3 [7]; 100 nM) [%] | cell viability (Calu-3 [7]; 1000 nM) [%] | cell viability (Calu-3 [7]; 10000 nM) [%] | cell viability (HepG2 [8]; 1 nM) [%] | cell viability (HepG2 [8]; 10 nM) [%] | cell viability (HepG2 [8]; 100 nM) [%] | cell viability (HepG2 [8]; 1000 nM) [%] | cell viability (HepG2 [8]; 10000 nM) [%] | drug sensitivity score (Vero E6 [9]) | drug sensitivity score (Caco-2 [10]) | drug sensitivity score (U2OS [11]) | drug sensitivity score (Calu-3 [12]) | drug sensitivity score (HepG2 [13]) | relative viability EC50 (Caco-2 [14]) [µM] | relative viability EC50 (Calu-3 [15]) [µM]
1 | CCN1CCN(Cc2ccc(Nc3ncc(F)c(-c4cc(F)c5nc(C)n(C(C)C)c5c4)n3)nc2)CC1 [abemaciclib] | 1.35 | 2.16 | 0.741 | 101 | 100 | 95.3 | 77.9 | 38 | 109 | 97.2 | 90.7 | 78.8 | 67.8 | 107 | 107 | 108 | 87.6 | 0.1 | 106 | 108 | 89.4 | 63 | 74.7 | 101 | 94.8 | 84.1 | 47.1 | 0.9 | 6.1 | 4.2 | 7.6 | 8.1 | 12.5 |  | 
2 | CCc1cc2c(cc1N1CCC(N3CCOCC3)CC1)C(C)(C)c1[nH]c3cc(C#N)ccc3c1C2=O [alectinib] | > 10 | > 10 | > 10 | 96 | 94.3 | 96.1 | 93.7 | 89 | 98.7 | 96.8 | 110 | 103 | 106 | 102 | 100 | 102 | 95.9 | 102 |  |  |  |  |  | 101 | 99.9 | 104 | 100 | 75.9 | 0 | 0 | 0 |  | 0.9 | > 10 | 
3 | COc1c(O)cc2c(c1O)[C@@H]1O[C@H](CO)[C@@H](O)[C@H](O)[C@H]1OC2=O [bergenin] | > 10 | > 10 | > 10 | 106 | 103 | 103 | 90.5 | 101 | 80.5 | 106 | 80.2 | 83.1 | 80.5 | 96.7 | 97.8 | 95.2 | 97.7 | 97.5 |  |  |  |  |  | 108 | 79.5 | 98.8 | 88.8 | 96.1 | 0 | 4.5 | 0 |  | 0 | > 10 | 
4 | O=C(O)c1cc(=O)c2c(OCC(O)COc3cccc4oc(C(=O)O)cc(=O)c34)cccc2o1 [cromoglicic-acid] | > 10 | > 10 | > 10 | 100 | 101 | 101 | 96.6 | 100 | 97 | 100 | 98.6 | 102 | 92.3 | 96.4 | 99.4 | 98.4 | 103 | 96.9 |  |  |  |  |  | 101 | 95.3 | 104 | 105 | 101 | 0 | 0 | 0 |  | 0 | > 10 | 
5 | O=C(CCCN1CC=C(n2c(=O)[nH]c3ccccc32)CC1)c1ccc(F)cc1 [droperidol] |  |  | > 10 |  |  |  |  |  |  |  |  |  |  |  |  |  |  |  |  |  |  |  |  | 116 | 113 | 106 | 108 | 89.1 |  |  |  |  | 0 |  | 
6 | COc1ccc(-c2oc3c(CC=C(C)C)c(O)cc(O)c3c(=O)c2O)cc1 [icaritin] | > 10 |  |  | 92.9 | 98.9 | 96.7 | 93.3 | 107 |  |  |  |  |  |  |  |  |  |  |  |  |  |  |  |  |  |  |  |  | 0 |  |  |  |  |  | 
7 | O.O.O.O.O=C([O-])CC(O)(CC(=O)[O-])C(=O)[O-].[Li+].[Li+].[Li+] [lithium-citrate] |  |  |  |  |  |  |  |  |  |  |  |  |  |  |  |  |  |  |  |  |  |  |  |  |  |  |  |  | 0 |  | 0 | 0 |  |  | 
8 | O=C(O)[C@H](O)c1ccccc1 [mandelic-acid] | > 10 | > 10 | > 10 | 100 | 99.1 | 93.8 | 97.3 | 98.9 | 91.9 | 84.2 | 104 | 94.4 | 91.6 | 98.7 | 100 | 99.3 | 106 | 94.8 |  |  |  |  |  | 110 | 96.7 | 103 | 96.4 | 102 | 0 | 0 | 0 |  | 0 | > 10 | 
9 | CN1C(=O)N(C)C2C1N(C)C(=O)N2C (centres undefined) [mebicar] |  | > 10 | > 10 |  |  |  |  |  | 101 | 106 | 98.5 | 97.9 | 95.8 | 104 | 104 | 99.8 | 106 | 102 |  |  |  |  |  | 110 | 107 | 114 | 97.9 | 92.2 |  | 0 | 0 |  | 0 | > 10 | 
10 | CC(CNC(=O)c1cccnc1)NC(=O)c1cccnc1 (centres undefined) [nicaraven] | > 10 | > 10 | > 10 | 93.8 | 99.1 | 101 | 97.3 | 97.7 | 97.3 | 103 | 94.9 | 97.6 | 89.4 | 97 | 97.2 | 98.7 | 99.8 | 92.1 |  |  |  |  |  | 94.7 | 106 | 90.8 | 101 | 98.9 | 0 | 0 | 0 |  | 0 | > 10 | 
11 | COC(=O)C1=C(C)NC(C)=C(C(=O)OCC(C)C)C1c1ccccc1[N+](=O)[O-] (centres undefined) [nisoldipine] |  |  | 2.1 | 100 | 101 | 102 | 94.6 | 60.7 | 98.2 | 109 | 99.1 | 93.8 | 63.1 | 101 | 106 | 102 | 99.4 | 51.1 | 97.6 | 106 | 107 | 94.6 | 103 | 100 | 98.7 | 104 | 92.4 | 42.6 | 2.8 | 2.8 | 2.6 | 0 | 4.4 |  | > 10
12 | CCCCC1C(=O)N(c2ccccc2)N(c2ccccc2)C1=O [phenylbutazone] |  |  |  |  |  |  |  |  |  |  |  |  |  |  |  |  |  |  |  |  |  |  |  |  |  |  |  |  | 0 |  | 0 | 0 | 0 |  | 
13 | Cc1ccnc(NC(=O)C(C)c2cccc(C(=O)c3ccccc3)c2)c1 (centres undefined) [piketoprofen] | > 10 | > 10 | > 10 | 98.3 | 98.8 | 99.8 | 106 | 96.1 | 96.7 | 87.3 | 91.7 | 93.5 | 91.5 | 105 | 102 | 97.7 | 103 | 95.3 |  |  |  |  |  | 103 | 89.3 | 111 | 107 | 80.8 | 0 | 0 | 0 |  | 0.3 | > 10 | 
14 | COc1ccc(Cl)c(Nc2nc3ccccc3nc2NS(=O)(=O)c2cccc(NC(=O)C(C)(C)N)c2)c1 [pilaralisib] | > 10 | > 10 |  | 97 | 98.7 | 93.8 | 99.4 | 81.2 | 91.3 | 96.4 | 109 | 93.9 | 68.3 | 97.9 | 94.4 | 98.9 | 94.1 | 81.4 | 93.9 | 86 | 96.8 | 88 | 60.2 | 96.9 | 97.5 | 96.9 | 86.6 | 57.9 | 0.6 | 2.4 | 1.1 | 3.5 | 3.8 |  | 
15 | O=C(CCBr)N1CCN(C(=O)CCBr)CC1 [pipobroman] |  | > 10 | > 10 |  |  |  |  |  | 115 | 115 | 97.3 | 114 | 99 | 97.8 | 104 | 99.7 | 97.7 | 94 |  |  |  |  |  | 90.2 | 112 | 101 | 83.7 | 102 |  | 0 | 0 |  | 0 | > 10 | 
16 | O=C(O)c1c(Cl)c(Cl)c(Cl)c(Cl)c1-c1c2cc(I)c(=O)c(I)c-2oc2c(I)c(O)c(I)cc12 [rose-bengal] |  |  |  | 97.6 ± 4 | 99.6 | 101 ± 3 | 90.5 ± 0.42 | 57.1 ± 5.8 | 96.1 ± 5.2 | 93.7 ± 6.9 | 98.4 ± 7.9 | 83.3 ± 0.92 | 52.2 ± 6.1 | 99.5 ± 3 | 101 ± 7.5 | 98.8 ± 0.28 | 92.65 ± 0.49 | 54 ± 5.6 | 96 ± 5.7 | 96.7 ± 3.9 | 97.2 ± 4.7 | 97.8 ± 12 | 54.4 ± 0.71 | 98.5 ± 1.1 | 92.7 ± 7 | 102 ± 3.8 | 86.2 ± 5.3 | 61.6 ± 4.2 | 3.7 ± 0.42 | 4.6 ± 0.14 | 3.6 ± 0.42 | 3 ± 1.4 | 3.8 ± 0.85 |  | 
17 | O=C(O)C(O)C(O)C(=O)O (centres undefined) [tartaric-acid] |  |  |  |  |  |  |  |  |  |  |  |  |  |  |  |  |  |  |  |  |  |  |  |  |  |  |  |  | 0 |  | 0 | 0 | 0 |  | 
18 | CC(C)(C)c1cc(/C=C(\C#N)C(N)=S)cc(C(C)(C)C)c1O [tyrphostin-AG-879] |  |  | 3.56 | 97.4 | 97.5 | 94.3 | 100 | 51 | 99.3 | 94.6 | 96.9 | 93.2 | 50.5 | 98.9 | 98.7 | 98.7 | 98.2 | 65.7 | 101 | 97.1 | 99.4 | 91 | 66.8 | 93.6 | 94.7 | 104 | 106 | 27.5 | 2.6 | 3.8 | 1.8 | 2.9 | 3.6 |  | 
19 | CN[C@H]1CN(c2ccc3c(=O)c(C(=O)O)cn(-c4nccs4)c3n2)C[C@@H]1OC [voreloxin] |  | 2.93 | 1.29 | 96.9 | 96.2 | 96.7 | 88.1 | 56.1 | 94.1 | 93.2 | 99.9 | 91.6 | 55.1 | 100 | 97.6 | 103 | 98 | 38.3 | 101 | 98.9 | 104 | 85.6 | 58.9 | 90.7 | 108 | 88.5 | 72.6 | 29.1 | 4 | 3.7 | 3.6 | 4.1 | 6.9 |  | 
20 | Cc1cccc(C)c1NC(=O)/N=C1\CCCN1C [xilobam] |  |  |  |  |  |  |  |  |  |  |  |  |  |  |  |  |  |  |  |  |  |  |  |  |  |  |  |  | 0 |  | 0 | 0 | 0 |  | 
